Results as given in patent US9944602B2, “Piperidinone herbicides” (E. I. DU PONT DE NEMOURS AND COMPANY, priority 2014, dated 2018).

What was measured:
Assay type in all cases: in vivo
[1] = system: ducksalad (Heteranthera limosa); assay: Test B flooded paddy test ducksalad; settings: Table B, Flood, 250 g ai/ha, scale 0 to 100
Method in brief: (§1)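 Visual injury relative to controls was scored after 13 to 15 d in the greenhouse. Treatment was by adding compound straight to flood water 3 cm deep, maintained for the whole test, on plants at the 2-leaf stage.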

[2] = system: kochia (Kochia scoparia); assay: Test A postemergence kochia; settings: 0 to 100 scale, 0 is no effect, 100 is complete control
Method in brief: (§2)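 Scores reflect visual comparison with untreated controls after ~10 d in the greenhouse (0 none, 100 complete control). Treatment was a surfactant-containing non-phytotoxic solvent formulation, sprayed onto soil after seeding or onto seedlings at one to two leaves, 2–10 cm tall.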

[3] = system: kochia (Kochia scoparia); assay: Test A preemergence kochia; settings: 0 to 100 scale, 0 no effect, 100 complete control
Method in brief: as §2

[4] = system: barnyardgrass (Echinochloa crus-galli); assay: Test B flooded paddy test barnyardgrass; settings: Table B, Flood, 250 g ai/ha, scale 0 to 100
Method in brief: as §1

[5] = system: pigweed (Amaranthus retroflexus); assay: Test A postemergence pigweed; settings: 0 to 100 scale, 0 is no effect, 100 is complete control
Method in brief: as §2

[6] = system: ragweed (common ragweed, Ambrosia elatior); assay: Test A postemergence ragweed; settings: 0 to 100 scale, 0 is no effect, 100 is complete control
Method in brief: as §2

[7] = system: foxtail, giant (giant foxtail, Setaria faberii); assay: Test A preemergence foxtail, giant; settings: 0 to 100 scale, 0 no effect, 100 complete control
Method in brief: as §2

[8] = system: ryegrass, Italian (Italian ryegrass, Lolium multiflorum); assay: Test A postemergence ryegrass, Italian; settings: 0 to 100 scale, 0 is no effect, 100 is complete control
Method in brief: as §2

[9] = system: ragweed (common ragweed, Ambrosia elatior); assay: Test A preemergence ragweed; settings: 0 to 100 scale, 0 no effect, 100 complete control
Method in brief: as §2

[10] = system: pigweed (Amaranthus retroflexus); assay: Test A preemergence pigweed; settings: 0 to 100 scale, 0 no effect, 100 complete control
Method in brief: as §2

[11] = system: corn (Zea mays); assay: Test A postemergence corn; settings: 0 to 100 scale, 0 is no effect, 100 is complete control
Method in brief: as §2

[12] = system: rice (Oryza sativa); assay: Test B flooded paddy test rice; settings: Table B, Flood, 250 g ai/ha, scale 0 to 100
Method in brief: as §1

[13] = system: ryegrass, Italian (Italian ryegrass, Lolium multiflorum); assay: Test A preemergence ryegrass, Italian; settings: 0 to 100 scale, 0 no effect, 100 complete control
Method in brief: as §2

[14] = system: barnyardgrass (Echinochloa crus-galli); assay: Test A postemergence barnyardgrass; settings: 0 to 100 scale, 0 is no effect, 100 is complete control
Method in brief: as §2

[15] = system: galium (catchweed bedstraw, Galium aparine); assay: Test A postemergence galium; settings: 0 to 100 scale, 0 is no effect, 100 is complete control
Method in brief: as §2

[16] = system: barnyardgrass (Echinochloa crus-galli); assay: Test A preemergence barnyardgrass; settings: 0 to 100 scale, 0 no effect, 100 complete control
Method in brief: as §2

[17] = system: sedge, umbrella (small-flower umbrella sedge, Cyperus difformis); assay: Test B flooded paddy test sedge, umbrella; settings: Table B, Flood, 250 g ai/ha, scale 0 to 100
Method in brief: as §1

[18] = system: blackgrass (Alopecurus myosuroides); assay: Test A postemergence blackgrass; settings: 0 to 100 scale, 0 is no effect, 100 is complete control
Method in brief: as §2

[19] = system: foxtail, giant (giant foxtail, Setaria faberii); assay: Test A postemergence foxtail, giant; settings: 0 to 100 scale, 0 is no effect, 100 is complete control
Method in brief: as §2

[20] = system: wheat (Triticum aestivum); assay: Test A postemergence wheat; settings: 0 to 100 scale, 0 is no effect, 100 is complete control
Method in brief: as §2

SMILES | Plant response rating [1] | Plant response rating, Kochia ([2]; 125 g ai/ha) | Plant response rating, Kochia ([2]; 500 g ai/ha) | Kochia plant response rating ([3]; 125 g ai/ha) | Kochia plant response rating ([3]; 500 g ai/ha) | Plant response rating [4] | Plant response rating, Pigweed ([5]; 125 g ai/ha) | Plant response rating, Pigweed ([5]; 500 g ai/ha) | Plant response rating, Ragweed ([6]; 125 g ai/ha) | Plant response rating, Ragweed ([6]; 500 g ai/ha) | Foxtail, Giant plant response rating ([7]; 125 g ai/ha) | Foxtail, Giant plant response rating ([7]; 500 g ai/ha) | Plant response rating, Ryegrass, Italian ([8]; 125 g ai/ha) | Plant response rating, Ryegrass, Italian ([8]; 500 g ai/ha) | Ragweed plant response rating ([9]; 125 g ai/ha) | Ragweed plant response rating ([9]; 500 g ai/ha) | Pigweed plant response rating ([10]; 125 g ai/ha) | Pigweed plant response rating ([10]; 500 g ai/ha) | Plant response rating, Corn ([11]; 125 g ai/ha) | Plant response rating, Corn ([11]; 500 g ai/ha) | further results
O=C1NCC[C@@H](c2cccc(C(F)(F)F)c2)[C@@H]1C(=O)Nc1cccc(F)c1F [Compound 20] | 0 | 0 | 0 | 0 | 0 | 0 | 0 | 0 | 0 | 0 | 60 | 90 | 0 | 20 | 0 | 0 | 0 | 0 | 0 | 20 | Plant response rating [12]: 0; Ryegrass, Italian plant response rating ([13]; 125 g ai/ha): 0; Ryegrass, Italian plant response rating ([13]; 500 g ai/ha): 0; Plant response rating, Barnyardgrass ([14]; 125 g ai/ha): 40; Plant response rating, Barnyardgrass ([14]; 500 g ai/ha): 80; Plant response rating, Galium ([15]; 125 g ai/ha): 0; Plant response rating, Galium ([15]; 500 g ai/ha): 0; Barnyardgrass plant response rating ([16]; 125 g ai/ha): 50; Barnyardgrass plant response rating ([16]; 500 g ai/ha): 90; Plant response rating [17]: 0; Plant response rating, Blackgrass ([18]; 125 g ai/ha): 0; Plant response rating, Blackgrass ([18]; 500 g ai/ha): 20; Plant response rating, Foxtail, Giant ([19]; 125 g ai/ha): 40; Plant response rating, Foxtail, Giant ([19]; 500 g ai/ha): 80; Plant response rating, Wheat ([20]; 125 g ai/ha): 0; Plant response rating, Wheat ([20]; 500 g ai/ha): 0
O=C1NCC[C@@H](c2ccc(C(F)(F)F)cc2)[C@@H]1C(=O)Nc1cccc(F)c1F [Compound 23] | 0 | 20 | 50 | 0 | 40 | 0 | 0 | 0 | 0 | 0 | 30 | 80 | 0 | 20 | 0 | 60 | 0 | 0 | 0 | 20 | Plant response rating [12]: 0; Ryegrass, Italian plant response rating ([13]; 125 g ai/ha): 0; Ryegrass, Italian plant response rating ([13]; 500 g ai/ha): 20; Plant response rating, Barnyardgrass ([14]; 125 g ai/ha): 20; Plant response rating, Barnyardgrass ([14]; 500 g ai/ha): 70; Plant response rating, Galium ([15]; 125 g ai/ha): 0; Plant response rating, Galium ([15]; 500 g ai/ha): 20; Barnyardgrass plant response rating ([16]; 125 g ai/ha): 30; Barnyardgrass plant response rating ([16]; 500 g ai/ha): 70; Plant response rating [17]: 0; Plant response rating, Blackgrass ([18]; 125 g ai/ha): 0; Plant response rating, Blackgrass ([18]; 500 g ai/ha): 10; Plant response rating, Foxtail, Giant ([19]; 125 g ai/ha): 20; Plant response rating, Foxtail, Giant ([19]; 500 g ai/ha): 60; Plant response rating, Wheat ([20]; 125 g ai/ha): 0; Plant response rating, Wheat ([20]; 500 g ai/ha): 20
O=C1NCC[C@@H](c2cccc(C(F)(F)F)c2)[C@@H]1C(=O)Nc1cccc(Cl)c1F [Compound 24] | 0 | 0 | 0 | 0 | 0 | 0 | 0 | 0 | 0 | 0 | 70 | 80 | 0 | 20 | 0 | 0 | 0 | 0 | 20 | 30 | Plant response rating [12]: 0; Ryegrass, Italian plant response rating ([13]; 125 g ai/ha): 0; Ryegrass, Italian plant response rating ([13]; 500 g ai/ha): 0; Plant response rating, Barnyardgrass ([14]; 125 g ai/ha): 50; Plant response rating, Barnyardgrass ([14]; 500 g ai/ha): 80; Plant response rating, Galium ([15]; 125 g ai/ha): 0; Plant response rating, Galium ([15]; 500 g ai/ha): 0; Barnyardgrass plant response rating ([16]; 125 g ai/ha): 50; Barnyardgrass plant response rating ([16]; 500 g ai/ha): 80; Plant response rating [17]: 0; Plant response rating, Blackgrass ([18]; 125 g ai/ha): 0; Plant response rating, Blackgrass ([18]; 500 g ai/ha): 30; Plant response rating, Foxtail, Giant ([19]; 125 g ai/ha): 50; Plant response rating, Foxtail, Giant ([19]; 500 g ai/ha): 80; Plant response rating, Wheat ([20]; 125 g ai/ha): 20; Plant response rating, Wheat ([20]; 500 g ai/ha): 30
O=C1NCC[C@@H](c2cccc(C(F)(F)F)c2)[C@@H]1C(=O)Nc1ccc(F)c(F)c1F [Compound 29] | 0 | 0 | 0 | 0 | 0 | 0 | 0 | 0 | 0 | 0 | 0 | 20 | 0 | 0 | 0 | 0 | 0 | 0 | 0 | 0 | Plant response rating [12]: 0; Ryegrass, Italian plant response rating ([13]; 125 g ai/ha): 0; Ryegrass, Italian plant response rating ([13]; 500 g ai/ha): 0; Plant response rating, Barnyardgrass ([14]; 125 g ai/ha): 0; Plant response rating, Barnyardgrass ([14]; 500 g ai/ha): 30; Plant response rating, Galium ([15]; 125 g ai/ha): 0; Plant response rating, Galium ([15]; 500 g ai/ha): 0; Barnyardgrass plant response rating ([16]; 125 g ai/ha): 0; Barnyardgrass plant response rating ([16]; 500 g ai/ha): 20; Plant response rating [17]: 0; Plant response rating, Blackgrass ([18]; 125 g ai/ha): 0; Plant response rating, Blackgrass ([18]; 500 g ai/ha): 0; Plant response rating, Foxtail, Giant ([19]; 125 g ai/ha): 0; Plant response rating, Foxtail, Giant ([19]; 500 g ai/ha): 0; Plant response rating, Wheat ([20]; 125 g ai/ha): 0; Plant response rating, Wheat ([20]; 500 g ai/ha): 0
O=C1NCC[C@@H](c2cccc(Cl)c2)[C@@H]1C(=O)Nc1cccc(F)c1F [Compound 43] | 0 | 0 | 0 | 0 | 0 | 0 | 0 | 0 | 0 | 0 | 0 | 0 | 0 | 0 | 0 | 0 | 0 | 0 | 0 | 0 | Plant response rating [12]: 0; Ryegrass, Italian plant response rating ([13]; 125 g ai/ha): 0; Ryegrass, Italian plant response rating ([13]; 500 g ai/ha): 0; Plant response rating, Barnyardgrass ([14]; 125 g ai/ha): 0; Plant response rating, Barnyardgrass ([14]; 500 g ai/ha): 0; Plant response rating, Galium ([15]; 125 g ai/ha): 0; Plant response rating, Galium ([15]; 500 g ai/ha): 0; Barnyardgrass plant response rating ([16]; 125 g ai/ha): 0; Barnyardgrass plant response rating ([16]; 500 g ai/ha): 0; Plant response rating [17]: 0; Plant response rating, Blackgrass ([18]; 125 g ai/ha): 0; Plant response rating, Blackgrass ([18]; 500 g ai/ha): 0; Plant response rating, Foxtail, Giant ([19]; 125 g ai/ha): 0; Plant response rating, Foxtail, Giant ([19]; 500 g ai/ha): 0; Plant response rating, Wheat ([20]; 125 g ai/ha): 0; Plant response rating, Wheat ([20]; 500 g ai/ha): 0
